Data taken from patent publication US5096817A, “Process for producing antibiotics BU-3608 D and BU-3608 E” (Bristol-Myers Company, priority 1990, dated 1992).

Legend:
[1] = acute toxicity in mice after single intravenous administration; settings: mouse, in vivo
Protocol: The acute toxicity of BU-3608 D was determined in mice after single intraveneous administration.

Candida albicans A9540 = assay: in vivo antifungal activity against C. albicans A9540 intravenous infection in mice; parameters: species or system male ICR mice; settings: for ED50: Candida albicans, A9540, 480 h, intravenous, from survival rates on the 20th day, read-out: PD50 (dose that protects 50% of the animals from infection); for Number of survivors/tested: 20th day
Protocol: In vivo activity of BU-3608 E was tested against Candida albicans A9540 infection in mice. Test organisms were cultured for 18 hours at 28° C. in YGP medium (yeast extract, glucose, peptone, K2 HPO4, MgSO4) and then suspended in saline. Male ICR mice weighing 20 to 24 g were infected intravenously with about 10 times the median lethal dose of the test fungus. The antibiotic at various dose levels was administered to groups of 5 mice each intravenously just after the fungal infection. The dose that protects 50% of the animals from infection (PD50, mg/kg) was calculated from survival rates recorded on the 20th day after the fungal challenge. All control animals died within 7 to 15 days after infection. The PD50 for BU-3608 D against the same organism and using the same test protocol as described above is 9 mg/kg/inj.

Row | Compound | LD50 [1] [mg/kg] | ED50 (Candida albicans A9540) [mg/kg] | Number of survivors/tested (Candida albicans A9540; 1.6 mg/kg/inj. intravenously just after infection) | Number of survivors/tested (Candida albicans A9540; 3.1 mg/kg/inj. intravenously just after infection) | Number of survivors/tested (Candida albicans A9540; 6.3 mg/kg/inj. intravenously just after infection) | Number of survivors/tested (Candida albicans A9540; 12.5 mg/kg/inj. intravenously just after infection) | Number of survivors/tested (Candida albicans A9540; 25 mg/kg/inj. intravenously just after infection) | Number of survivors/tested (Candida albicans A9540; 50 mg/kg/inj. intravenously just after infection)
1 | CN[C@@H]1[C@H](O[C@@H]2OC[C@@H](O)[C@H](O)[C@H]2O)[C@@H](O)[C@H](O[C@H]2c3cc(C)c(C(=O)NCC(=O)O)c(O)c3-c3c(cc4c(c3O)C(=O)c3cc(OC)cc(O)c3C4=O)[C@@H]2O)O[C@@H]1C [BU-3608 D] | 210 | 9 |  |  |  |  |  | 
2 | COc1cc(O)c2c(c1)C(=O)c1c(cc3c(c1O)-c1c(cc(C)c(C(=O)NCC(=O)O)c1O)[C@H](O[C@@H]1O[C@H](C)[C@H](N)[C@H](O[C@@H]4OC[C@@H](O)[C@H](O)[C@H]4O)[C@H]1O)[C@H]3O)C2=O [BU-3608 E] |  | 8.9 | 0/5 | 0/5 | 1/5 | 4/5 | 5/5 | 5/5
